# Columns and labels:
# [1] = target: T1, TSPO (Rattus norvegicus, UniProt P16257); conditions: competing drug 1 mg/Kg i.v. 5 min prior to tracer; rats, 30 min p.i.; vs controls
# Experimental: The saturation effect of [^123I]-CLINME uptake was studied in competition experiments by injecting CLINME (1 mg/Kg), 5 min prior to [^123I]-CLINME (0.7 MBq, 10 pmoles in 0.1 mL of 0.9% saline), via the tail vein, to 8–10-week-old male SD rats.
# The drugs were dissolved in dimethyl sulfoxide/saline (1 : 5) and injected intravenously 5 min prior to [^123I]-CLINME. Groups of rats (n = 3-4) were sacrificed by CO2 administration followed by cervical fracture 30 min after administration of [^123I]-CLINME and peripheral organs (liver, spleen, lung, heart, kidney, and adrenals), blood, olfactory bulbs, and the remainder of the brain were removed. The radioactivity concentrations were calculated as described previously. Results were analysed by one-way analysis of variance (ANOVA) followed by Tukey's post hoc test for comparing the tissue radioactivity concentrations in the treated animals (n = 3-4) and in the controls (n = 6). The criterion for significance was P < 0.05.
# [2] = Lipophilicity, log P estimated from HPLC retention times; assay type: physicochemical; conditions: pH 7.5
# Description: The log P values were estimated by comparing HPLC retention times of test compounds with retention times of standards having known log P values as described.
# [3] = test system: TPSO; conditions: rats, dose of 5 mg/Kg; cited from earlier work
# [4] = target: T1, TSPO; assay: In vitro autoradiography with [^125I]-CLINME on lesioned brain tissue; assay type: binding, SD rats; design: from tissue; host or cells: male Sprague-Dawley rats: peripheral organs and brain in vivo; AMPA-lesioned striatum; brain sections; conditions: 20 μM drug, 16 nM [^125I]-CLINME
# [5] = target: T1, TSPO; assay: In vitro binding assay, TSPO, [^3H]-Ro 5-4864; design: from tissue
# Experimental: (§1) […] (IC50) of CLINME for the TPSO and for the central benzodiazepine receptor (CBR) was determined as described previously. The IC50 values were converted to the inhibition constant, Ki, using Cheng-Prusoff equation.
# [6] = target: central benzodiazepine receptor (CBR); assay: In vitro binding assay, central benzodiazepine receptor; conditions: membranes from kidney and brain cortex; read-out: inhibition constant for the CBR
# Experimental: as §1
# [7] = target: T1, TSPO; assay: In vitro binding assay, TSPO, [^3H]-PK11195; design: from tissue
# Experimental: as §1
SMILES,decrease of [^123I]-CLINME uptake in the heart [1] [%],decrease of [^123I]-CLINME uptake in the kidney [1] [%],decrease of [^123I]-CLINME uptake in the lungs [1] [%],decrease of [^123I]-CLINME uptake in the olfactory bulbs [1] [%],increase of [^123I]-CLINME uptake in the blood [1] [%],chromatographic logP ([2]; HPLC retention times compared with standards of known log P),block of the uptake of [^123I]-PK11195 in the adrenals [3] [%],effect of coincubation on the differential (lesioned vs contralateral) binding of [^125I]-CLINME [4],chromatographic logP [2],Ki [5] [nM],Ki [6] [nM],Ki [7] [nM],selectivity for the TPSO over the CBR ([7]; in vitro) [fold],melting point [°C]
CCC(C)N(C)C(=O)c1cc2ccccc2c(-c2ccccc2Cl)n1 (centres unmarked) [PK11195],87,72,81,36,29,3.35,85,eliminated,,,,,,
"CCN(C)C(=O)Cc1c(-c2ccc(I)cc2)nc2ccc(Cl)cn12 [CLINME, 2-(6-Chloro-2-(4-iodophenyl)imidazo[1,2-a]pyridin-3-yl)-N-ethyl-N-methylacetamide]",86,71,76,38,45,,,eliminated,3.27,4.5 ± 0.6,183 ± 20,1.6 ± 0.2,110,65 to 67

# From article PMC4496498, “Radiosynthesis, In Vivo Biological Evaluation, and Imaging of Brain Lesions with [^123I]-CLINME, a New SPECT Tracer for the Translocator Protein” (Disease Markers, 2015)
